From patent publication US20220226335A1, “Non-Peptidic Heterocycle-Containing Compounds for the Treatment of Alzheimer?s Disease” (The Governors of the University of Alberta, priority 2019, published 2022)
Like-named read-outs stand apart in the source and are kept apart here. Where no end group is shown, it is not given here.

Assays:
[1] = tested on: Aβ plaques; experiment: Aβ plaque load (FIG. 8); type: in vivo
[2] = tested on: N2a cells; experiment: Live/Dead cell assay; type: cell-based, mouse; conditions: data not shown
Description: Live/Dead cell assay. LIVE/DEAD™ Viability/Cytotoxicity Kit from ThermoFisher Scientific (Invitrogen) was used according to the instructions of the manufacturer. Briefly, The N2a cells were cultured in 8 well Lab-Tek chamber slide (ThermoFisher Scientific, Nunc). Cells were incubated either with or without the assay compounds, followed by treatment with Aβ1-42 for 24 h. At the end of treatment, the cells were washed three times with D-PBS, followed added live/dead reagent in D-PBS and culture for 30 min. Then fixed the cells with 4% paraformaldehyde for 10 min. Further washed the cells with PBS three times and sealed with coverslip. View the labeled cells under fluorescence microscope. Fluorescent microscopy images were acquired with an Axioplan-2 fluorescence microscope with AxioVision software (Carl Zeiss Ltd., Toronto, ON, Canada). Live/Dead cells were analyzed with Image J software (Schneider, C. A., Rasband, W. S., Eliceiri, K. W. “NIH Image to ImageJ: 25 years of image analysis”. Nature Methods 2012; 9:671-675).

[3] = tested on: hippocampal brain slices from transgenic AD mice (TgCRND8); experiment: hippocampal LTP electrophysiology, slices from transgenic AD mice (TgCRND8); set-up: species or system mouse; conditions: compared with age-matched control/wild type mice
Source text: Hippocampal long term potentiation (LTP) electrophysiology experiments: an in vitro cellular surrogate for memory. Brains were quickly removed from mice following decapitation, placed in a cold artificial cerebral spinal fluid (aCSF) on a vibratome chamber and transverse sections cut through the hippocampus. The aCSF contained (in mM) 124 NaCl, 3 KCl, 2.4 CaCl2), 2 MgCl2, 1.25 NaH2PO4, 26 NaHCO3 and 10 D-glucose, and was equilibrated with 95% O2 and 5% CO2. Hippocampal slices ([…]) were maintained in aCSF-filled holding chamber at room temperature for at least 1 hour and individually transferred to the submerged glass bottom recording chamber, which was constantly perfused with aCSF (2 mL/min) at 30° C. Field excitatory postsynaptic potential (fEPSP) was recorded with a metallic (Pt/Ir) electrode (FHC, Bowdoin, Me.) from the stratum radiatum layer of Cornu ammonis 1 region of the hippocampus (CA1) area, and the Schaffer collateral afferents were stimulated with 100-μs test pulses via a bipolar cluster electrode (FHC) (Kimura et al., 2012, Kimura et al. 2016). […] Before 3-TBS or drug application, the responses were monitored for at least 10 minutes to ensure a stable baseline of fEPSP. […]

[4] = tested on: amylin receptor; experiment: downstream phosphoERK response; type: cell-based; conditions: among Compounds 22-25
[5] = target: T1, amylin receptor subtype 3 (AMY3) (Homo sapiens, UniProt O60896+P30988); experiment: cAMP assay in amylin receptor subtype 3 expressing cells (AMY3-HEK), ELISA and in-cell Western; type: cell-based; conditions: for IC50: compound and human amylin applied simultaneously, read-out: IC50 required to block hAmylin induced cAMP increase
T1 construct: expressed in transfected cells
T1 sequence (P30988 25-474): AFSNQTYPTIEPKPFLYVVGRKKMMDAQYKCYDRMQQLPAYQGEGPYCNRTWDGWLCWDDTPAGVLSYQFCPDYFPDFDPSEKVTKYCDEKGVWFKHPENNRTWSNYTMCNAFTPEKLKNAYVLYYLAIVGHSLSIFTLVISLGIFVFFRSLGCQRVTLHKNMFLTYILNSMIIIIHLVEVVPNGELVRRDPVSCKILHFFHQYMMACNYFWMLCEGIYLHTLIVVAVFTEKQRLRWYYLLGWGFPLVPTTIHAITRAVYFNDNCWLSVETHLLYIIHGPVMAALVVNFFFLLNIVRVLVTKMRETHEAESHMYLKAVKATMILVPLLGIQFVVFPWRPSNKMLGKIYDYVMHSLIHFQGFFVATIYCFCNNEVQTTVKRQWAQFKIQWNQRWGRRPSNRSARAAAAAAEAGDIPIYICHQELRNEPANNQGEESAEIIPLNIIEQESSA
T1 sequence (O60896 24-148): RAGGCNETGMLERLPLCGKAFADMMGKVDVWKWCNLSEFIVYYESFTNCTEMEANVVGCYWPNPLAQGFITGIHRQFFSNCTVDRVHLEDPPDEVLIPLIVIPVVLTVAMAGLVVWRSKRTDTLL
Description: An initial set of 10 compounds was screened using a cyclic AMP (cyclic adenosinemonophosphate, cAMP) assay in amylin receptor subtype 3 expressing cells.
Cell Cultures. Amylin receptor subtypes (AMY3-HEK cells) stably expressed in human embryonic kidney (HEK293) cell-line were generated and characterized as described in a previous published article from our laboratory (Fu et al., J. Biol. Chem. 2012). The AMY3-HEK cells were grown in a 5% CO2 humidified incubator at 37° C. with DMEM, 10% FBS, and 100 μg/mL Zeocin medium.
Two cAMP detection methods were used to validate the findings.
ELISA (enzyme-linked immunosorbent assay). Cellular cAMP levels were measured using a parameter cyclic AMP assay kit (R&D Systems) according to the manufacturer's instructions. Briefly, AMY3-HEK cells were plated on 24-well plates overnight. These cells were then incubated with or without the assay compounds and hAmylin for 5 min. The cells were lysed with lysis buffer provided in the assay kit. Standard curves were plotted using the cAMP standards provided in the ELISA kits. All samples were analyzed in duplicate. The plate is measured at 450 nm. Data was plotted, and non-linear regression was fitted with four parameters using Prism software (GraphPad Software, La Jolla, Calif.).
In-cell Western blot technique. Intracellular cAMP signaling profiles were also determined using in-cell Western blot technique as previously described (Fu W, et al., J Biol Chem. 2012; 287(22):18820-30). AMY3-HEK cells were seeded at 10,000 cells/well in a 96-well plate (Nalge Nunc Intl., Rochester, N.Y.) in DMEM, 10% FBS, Zeocin medium and cultured overnight. […] For cyclic adenosinemonophosphate (cAMP) quantification, mouse monoclonal anti-cAMP (R&D Systems) was used as a primary antibody, and IRDye 800 goat anti mouse antibody (LI-COR) was used as a secondary antibody, whereas Sapphire700 and DRAQ5 were used for cell number normalization (LI-COR). […]

[6] = tested on: N2a (mouse) neuronal cells; experiment: MTT cell death assay, N2a neuronal cells; type: cell-based; conditions: 10 μM Aβ1-42 for 24 hours
Description: (§1) MTT Cell Death Assay. The N2a (mouse) and SK-N-SH (human) neuronal cells were seeded to 5000 cells/well in a 96-well plate in DMEM medium, 10% FBS and incubated overnight. Cells in culture medium were incubated either with or without the assay compounds and Aβ1-42, 10 μM for 24-48 h. At the end of treatment, 20 μL of 5 mg/mL 3-(4,5-dimethylthiazol-2-yl)-2,5-diphenyltetrazolium bromide (MTT, Sigma) was added to each well and incubated at 37° C. for 3 h. Medium was removed, 100 μL of MTT solvent (isopropanol with 4 mM HCl) was added to each well, and the plates were incubated for 30 min at room temperature on a rotating shaker. Plates were analyzed on a microplate reader at a 562 nm wavelength.
(§2) FIGS. 2A and 2B. In mouse and human neuronal cell lines co-application of Compound 3 blunted human amylin and amyloid beta induced cytotoxicity. Neuronal cell lines N2a and SK-N-HS were treated with increasing concentrations of Compound 3 plus 10 μM Aβ1-42 or 5 μM hAmylin for 48 h.

[7] = tested on: brain hippocampal slices; experiment: hippocampal long term potentiation (LTP) electrophysiology, slices from wild type mice; set-up: species or system mouse; conditions: for effect on human amylin-induced depression/reduction of LTP: hippocampal slices, Compounds 3 and 23 at 1 μM
Source text: Hippocampal long term potentiation (LTP) electrophysiology experiments: an in vitro cellular surrogate for memory. Brains were quickly removed from mice following decapitation, placed in a cold artificial cerebral spinal fluid (aCSF) on a vibratome chamber and transverse sections cut through the hippocampus. The aCSF contained (in mM) 124 NaCl, 3 KCl, 2.4 CaCl2), 2 MgCl2, 1.25 NaH2PO4, 26 NaHCO3 and 10 D-glucose, and was equilibrated with 95% O2 and 5% CO2. Hippocampal slices ([…]) were maintained in aCSF-filled holding chamber at room temperature for at least 1 hour and individually transferred to the submerged glass bottom recording chamber, which was constantly perfused with aCSF (2 mL/min) at 30° C. Field excitatory postsynaptic potential (fEPSP) was recorded with a metallic (Pt/Ir) electrode (FHC, Bowdoin, Me.) from the stratum radiatum layer of Cornu ammonis 1 region of the hippocampus (CA1) area, and the Schaffer collateral afferents were stimulated with 100-μs test pulses via a bipolar cluster electrode (FHC) (Kimura et al., 2012, Kimura et al. 2016). To evaluate basal synaptic transmission, we applied different stimulation strengths (75 μA to 300 μA in steps of 25 μA) and plotted the amplitudes of presynaptic fiber volleys versus the corresponding fEPSP slopes to compare the slope of input/output (I/O) curves of fEPSP. For long-term potentiation (LTP) experiments, the stimulus strength was set to elicit 40-50% of the maximum fEPSP amplitude and test pulses were delivered to Schaffer collaterals once every 30 seconds. LTP was induced by 3-theta-burst stimulation (3-TBS) protocol (each burst consisted of 4 pulses at 100 Hz with a 200-ms inter-burst interval). Before 3-TBS or drug application, the responses were monitored for at least 10 minutes to ensure a stable baseline of fEPSP. […] Results were from various treatment groups were plotted as histograms with means±standard error (SE). […]

[8] = tested on: SK-N-SH (human) neuronal cells; experiment: MTT cell death / cytotoxicity assay, SK-N-SH neuronal cells; type: cell-based; conditions: 10 μM Aβ1-42 for 24 hours
Description: as §1, §2

[9] = tested on: hippocampus of Alzheimer's disease mice (TgCRND8); conditions: Kimura et al., 2012; 2016; cited from earlier work
[10] = tested on: neurons; conditions: Jhamandas et al., 2004; 2011; 2012; cited from earlier work

## cyclized AC253: cyclized AC253 (CLGRLSQELHRLQTYPRTNTGSNTYC; also: cyclised, mode of ring closure not given here) [reference compound]
[1]
  area covered by plaques: decreases
  total Aβ plaques: decreases

## Cc1nc(C)c(CCC(=O)N2CC(=O)Nc3ccccc32)c(=O)[nH]1 [Compound 23, 4-(3-(2,4-dimethyl-6-oxo-1,6-dihydropyrimidin-5-yl)propanoyl)-3,4-dihydroquinoxalin-2(1H)-one]
[2]
  neuroprotective effects against Aβ toxicity, Live/Dead cell assay: confirmed neuroprotective effects
[3]
  effect on chronically depressed LTP in transgenic AD mice slices: restoration of LTP in AD mice to levels comparable to wild type mice
[4]
  potency rank in downstream phosphoERK response: most potent of these four analogues
[1]
  area covered by plaques: decreases
  total Aβ plaques: decreases
[5]; 0.1 μM hAmylin
  IC50: 0.001 µM
[5]; 1 μM hAmylin
  IC50: 0.15 µM
[5]; among Compounds 22-25
  potency rank in cAMP assay: most potent of these four analogues
[6]
  neuroprotection against amyloid beta toxicity: neuroprotective against amyloid beta toxicity
[7]
  effect on human amylin-induced depression/reduction of LTP: restored the reduction in LTP by nanomolar dose of human amylim (h-Amylin) to control levels
[7]; nanomolar dose of Aβ, compound 1 μM
  effect on amyloid beta (Aβ)-induced reduction in LTP: restored to control levels
[8]
  neuroprotection against amyloid beta toxicity: neuroprotective against amyloid beta toxicity

## COC(=O)N[C@H](C(=O)N1CCC[C@H]1c1ncc(-c2ccccc2)[nH]1)C(C)C [AVI9030, methyl N-[(1S)-2-methyl-1-[[(2S)-2-(5-phenyl-1H-imidazol-2-yl)-1-pyrrolidinyl]carbonyl]propyl]carbamate, reference compound]
[7]
  effect on human amylin-induced depression/reduction of LTP: did not block human amylin-induced reduction of LTP

## AC253: peptide antagonist of the amylin receptor, SEQ ID NO: 1 (Ac-LGRLSQELHRLQTYPRTNTGSNTY)
[9]
  effect on Aβ- or human amylin-induced depression of long-term potentiation: can reverse impairment of Aβ- or human amylin-induced depression of long-term potentiation
[10]
  neuroprotection against Aβ toxicity: neuroprotective against Aβ toxicity
